Assay results published in patent US12065443B2, “Compounds and pharmaceutical compositions thereof for the treatment of diseases” (priority 2017, dated 2024).
Where two headings read alike, the source gives them in different places.

Assays:
[1] = molecular target: T1, SIK1 (Homo sapiens, UniProt P57059); experiment: biochemical; conditions: 33P radioactive SIK kinase assay, AMARA peptide, 10 μM ATP; read-out: SIK1 IC50
T1 construct: purchased Carna Biosciences 02-131
Method in brief: (§1)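 AMARA peptide phosphorylation by SIK1–3 is quantified through ^33P uptake from a labeled/unlabeled ATP blend. Staurosporine at 10 μM final defines full inhibition, 1% DMSO the uninhibited signal. Quench uses phosphoric acid; counting follows filter capture.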

[2] = molecular target: T2, SIK2 (Homo sapiens, UniProt Q9H0K1); experiment: biochemical; conditions: 33P radioactive SIK kinase assay, AMARA peptide, 10 μM ATP
T2 construct: purchased ThermoFisher Scientific PV4792
T2 sequence (Q9H0K1 whole entry): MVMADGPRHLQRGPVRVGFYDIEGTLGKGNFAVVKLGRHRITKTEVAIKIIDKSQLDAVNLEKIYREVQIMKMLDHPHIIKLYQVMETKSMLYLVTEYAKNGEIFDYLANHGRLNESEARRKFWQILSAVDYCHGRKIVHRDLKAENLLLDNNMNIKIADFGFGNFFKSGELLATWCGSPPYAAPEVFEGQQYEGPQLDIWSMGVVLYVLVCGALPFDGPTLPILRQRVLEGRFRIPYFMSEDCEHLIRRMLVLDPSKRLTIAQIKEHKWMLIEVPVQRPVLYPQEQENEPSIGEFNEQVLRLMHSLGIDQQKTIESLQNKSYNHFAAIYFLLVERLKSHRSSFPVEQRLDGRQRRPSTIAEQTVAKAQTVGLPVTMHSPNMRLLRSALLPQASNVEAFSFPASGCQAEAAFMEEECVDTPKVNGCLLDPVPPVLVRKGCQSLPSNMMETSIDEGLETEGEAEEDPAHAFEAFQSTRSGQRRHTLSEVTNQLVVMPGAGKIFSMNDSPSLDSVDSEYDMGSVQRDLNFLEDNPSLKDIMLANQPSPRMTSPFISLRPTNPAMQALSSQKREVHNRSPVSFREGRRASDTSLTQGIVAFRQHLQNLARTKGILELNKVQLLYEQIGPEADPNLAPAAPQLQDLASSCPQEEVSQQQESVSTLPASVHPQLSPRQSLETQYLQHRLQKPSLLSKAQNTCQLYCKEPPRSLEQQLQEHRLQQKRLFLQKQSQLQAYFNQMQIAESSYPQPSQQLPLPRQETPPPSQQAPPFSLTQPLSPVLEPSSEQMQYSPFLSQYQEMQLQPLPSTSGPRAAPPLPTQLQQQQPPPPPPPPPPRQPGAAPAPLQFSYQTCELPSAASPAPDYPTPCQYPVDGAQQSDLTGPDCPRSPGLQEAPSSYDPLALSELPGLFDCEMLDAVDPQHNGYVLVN
Method in brief: as §1

[3] = molecular target: T3, SIK3 (Homo sapiens, UniProt Q9Y2K2); experiment: biochemical
T3 construct: purchased SignalChem S12-11G-100
T3 sequence (Q9Y2K2 whole entry): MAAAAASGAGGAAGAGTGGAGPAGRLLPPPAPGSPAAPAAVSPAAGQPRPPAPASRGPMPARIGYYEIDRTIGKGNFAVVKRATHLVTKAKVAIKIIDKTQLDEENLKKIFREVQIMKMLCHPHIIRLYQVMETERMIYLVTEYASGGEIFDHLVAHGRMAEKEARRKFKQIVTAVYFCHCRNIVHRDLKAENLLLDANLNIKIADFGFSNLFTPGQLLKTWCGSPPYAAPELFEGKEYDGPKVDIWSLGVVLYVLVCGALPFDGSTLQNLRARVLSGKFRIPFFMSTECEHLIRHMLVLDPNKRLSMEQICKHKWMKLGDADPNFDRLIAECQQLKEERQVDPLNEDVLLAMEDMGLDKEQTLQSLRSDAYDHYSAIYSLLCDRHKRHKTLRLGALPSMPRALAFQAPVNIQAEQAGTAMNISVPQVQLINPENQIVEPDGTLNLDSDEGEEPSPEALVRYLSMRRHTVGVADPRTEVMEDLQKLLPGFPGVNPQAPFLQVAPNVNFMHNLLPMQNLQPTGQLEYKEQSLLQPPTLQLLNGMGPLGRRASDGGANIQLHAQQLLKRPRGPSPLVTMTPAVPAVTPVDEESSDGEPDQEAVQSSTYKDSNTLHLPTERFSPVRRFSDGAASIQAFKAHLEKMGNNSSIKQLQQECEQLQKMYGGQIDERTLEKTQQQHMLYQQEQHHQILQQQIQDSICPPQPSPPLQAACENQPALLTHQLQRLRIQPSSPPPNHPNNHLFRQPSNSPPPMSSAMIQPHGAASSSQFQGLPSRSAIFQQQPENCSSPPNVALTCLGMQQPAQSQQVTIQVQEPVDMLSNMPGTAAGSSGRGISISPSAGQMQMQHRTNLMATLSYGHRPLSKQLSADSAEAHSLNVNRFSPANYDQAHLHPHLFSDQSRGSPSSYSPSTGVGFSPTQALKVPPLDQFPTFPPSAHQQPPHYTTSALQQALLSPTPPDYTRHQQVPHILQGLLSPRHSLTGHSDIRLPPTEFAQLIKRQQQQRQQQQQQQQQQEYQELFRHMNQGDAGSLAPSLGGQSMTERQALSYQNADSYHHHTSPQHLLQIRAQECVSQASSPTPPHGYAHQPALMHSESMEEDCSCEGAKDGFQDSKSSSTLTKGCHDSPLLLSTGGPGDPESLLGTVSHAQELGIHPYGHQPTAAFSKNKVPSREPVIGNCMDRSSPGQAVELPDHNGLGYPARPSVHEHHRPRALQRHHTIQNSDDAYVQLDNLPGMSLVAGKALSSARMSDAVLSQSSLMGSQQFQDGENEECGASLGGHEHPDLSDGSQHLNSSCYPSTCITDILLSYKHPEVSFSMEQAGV
Method in brief: as §1

[4] = molecular target: T1, SIK1; experiment: biochemical; conditions: ADP-Glo SIK kinase assay
Method in brief: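 Wells with 1% DMSO or 10 μM staurosporine (final) define the control window. The kinase reaction with substrate and ATP runs 120 min at RT, followed by ADP-Glo detection: ATP depletion (40 min) and ADP-derived luminescence (30 min).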

[5] = molecular target: T2, SIK2; experiment: biochemical; conditions: ADP-Glo SIK kinase assay
Method in brief: (§2)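 Kinase reactions (enzyme-substrate mix plus ATP) ran 120 min at room temperature for each of SIK3 and SIK2. Signal came from ADP-Glo: unconsumed ATP removed (40 min), ADP reconverted and detected by luciferase/luciferin (30 min), with luminescence tracking kinase activity. 10 μM staurosporine and 1% DMSO (final) served as controls.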

[6] = molecular target: T3, SIK3; experiment: biochemical; conditions: ADP-Glo SIK kinase assay
Method in brief: as §2

[7] = test system: LPS driven TNFα secretion in Peripheral Blood Mononuclear Cells (PBMC); experiment: cells; type: cell-based; conditions: Homo sapiens, LPS 1 ng/mL, supernatant after 18-20 h, ELISA
Experimental: This assay measures the inhibition of LPS driven TNFα secretion by a test compound in Peripheral Blood Mononuclear Cells (PBMC), which in turn correlates with SIK inhibition.
PBMCs are isolated from human blood samples (buffy coats). The buffy coat is aseptically transferred into a 50 mL Falcon™ tube, and diluted 1/2 in Phosphate Buffered Saline (PBS). […] The tubes are centrifuged for 35 min at 400× g in temperature controlled centrifuge, without brake, at 25° C. PBMCs are aspirated from the white interface layer between sample and Lymphoprep. PBMCs are washed five times in PBS. […] The PBMCs are finally seeded at 400,000 PBMC/160 μL/96-well.
A compound dilution plate is made in 100% DMSO by 3-fold dilution of 10 mM stock solution of test compound. An intermediate dilution plate (10× final concentration) is made by diluting the compound dilution plate 50-fold in RPMI medium.
20 μL of the 10× final concentration compound is added to the cells and incubated for 1 hour at 37° C. before addition of trigger. No trigger conditions/trigger conditions are spiked with equal final DMSO concentrations of 0.2% DMSO. 20 μL of 10×LPS (final concentration 1 ng/mL) solution are added to all wells except for the ‘no trigger wells’ where 20 μL medium is added. Supernatant is collected after 18-20 h for IL-10 and TNFα determination using ELISA.
The plate is then washed once with PBST (PBS+0.05% Tween20) and once with PBS followed by the addition of 100 μL of blocking buffer (1% Bovine Serum Albumin (BSA)-5% Sucrose) and plates are sealed and incubated for at least 4 h at RT. After washing the plate once with PBST and once with PBS, 40 μL of standard or sample are added (TNFα standard curve is prepared using a 1/2 serial dilution starting from 16000 pg/mL; dilutions are made in dilution buffer (PBS+1% BSA)). Plates are washed twice with PBST, and once with PBS, after which 35 μL of the detection antibody is added (final concentration 0.25 μg/mL diluted in dilution buffer) and plates are incubated for at least 2 h at RT. Plates are washed twice with PBST, and once with PBS, where after 35 μL of Strep-HRP conjugate (0.5 μg/mL final concentration diluted in dilution buffer) is added. Plates are incubated in the dark, at RT for at least 45 min but no longer than 1 hour. Plates are washed twice with PBST, and once with PBS. Thereafter, 50 μL of luminol substrate is added to each well (prepared according to manufacturer's instructions), and incubated for 5 min at RT protected from light.
To measure the inhibition of LPS induced TNFα, percentage inhibition (PIN) values are calculated for all concentrations tested, compared to controls.
PIN values are plotted in concentration-response and EC50 values are derived using GraphPad Prism Software, applying 4-parameter nonlinear regression (sigmoidal) curve fitting.

[8] = test system: LPS-induced TNFα secretion in monocyte-derived macrophages (MdM); experiment: MdM assay: LPS-triggered TNFα (ELISA); type: cell-based, human; conditions: Homo sapiens, Macrophage, LPS-triggered TNFα inhibition
Method in brief: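 Human CD14+ monocytes isolated from buffy-coat PBMCs by magnetic beads, differentiated to macrophages; on day 10 compound preincubated 1 h at 37 °C, then LPS 200 ng/mL added (0.2% DMSO). Supernatant taken after 20 h; TNFα quantified by sandwich ELISA against standard curve.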

[9] = test system: LPS triggered IL-10 secretion in monocyte-derived macrophages (MdM); experiment: MdM assay: LPS-triggered IL-10 (ELISA); type: cell-based, human; conditions: maximal fold change vs LPS only, median across assays
Method in brief: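 CD14+ monocytes isolated from human buffy-coat PBMCs and differentiated to macrophages for 10 days. Cells pre-treated with compound 1 h at 37° C (0.2% DMSO), then stimulated with 200 ng/mL LPS; IL-10 in supernatant at 2 h measured by ELISA (A450). Maximal fold change versus LPS only reported as median of two or more runs.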

T1 sequence (P57059 whole entry): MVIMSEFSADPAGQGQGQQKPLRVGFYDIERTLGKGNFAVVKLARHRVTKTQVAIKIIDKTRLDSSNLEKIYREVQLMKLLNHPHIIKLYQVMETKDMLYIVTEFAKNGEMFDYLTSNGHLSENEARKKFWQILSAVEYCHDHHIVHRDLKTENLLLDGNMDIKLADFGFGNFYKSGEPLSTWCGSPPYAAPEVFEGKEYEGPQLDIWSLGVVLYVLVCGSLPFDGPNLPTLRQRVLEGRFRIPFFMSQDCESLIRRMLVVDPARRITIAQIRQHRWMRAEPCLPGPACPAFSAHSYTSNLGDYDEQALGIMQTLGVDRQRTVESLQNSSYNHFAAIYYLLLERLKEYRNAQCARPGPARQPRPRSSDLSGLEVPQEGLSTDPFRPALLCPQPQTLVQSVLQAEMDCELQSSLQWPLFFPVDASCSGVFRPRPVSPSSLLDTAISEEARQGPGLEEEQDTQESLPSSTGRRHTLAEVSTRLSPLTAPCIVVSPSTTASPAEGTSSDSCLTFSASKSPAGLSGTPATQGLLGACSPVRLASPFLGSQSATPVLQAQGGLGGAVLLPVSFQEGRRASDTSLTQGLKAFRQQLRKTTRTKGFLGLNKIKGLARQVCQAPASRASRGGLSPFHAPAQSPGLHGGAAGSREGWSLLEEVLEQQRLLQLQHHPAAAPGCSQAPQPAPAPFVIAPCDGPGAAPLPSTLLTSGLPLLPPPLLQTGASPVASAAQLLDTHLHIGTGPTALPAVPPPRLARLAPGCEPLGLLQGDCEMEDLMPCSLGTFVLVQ

Compound | IC50 [1] [nM] | IC50 [2] [nM] | IC50 [3] [nM] | IC50 [4] [nM] | IC50 [5] [nM] | IC50 [6] [nM] | EC50 [7] [nM] | EC50 [8] [nM] | IL-10 FCmax median [9]
COc1cc(-c2cnc3cc(-c4cnn(C)c4)ccn23)cc(OC)c1C(=O)N1CC(F)(F)C1 [Cpd 173, (3,3-difluoroazetidin-1-yl)-[2,6-dimethoxy-4-[7-(1-methylpyrazol-4-yl)imidazo[1,2-a]pyridin-3-yl]phenyl]methanone] | 10 to 100 | 0.01 to 10 | 0.01 to 10 | 0.01 to 10 | 0.01 to 10 | 0.01 to 10 | 0.1 to 100 | 0.1 to 100 | ++ (>1.5-4.5)
COc1cc(-n2cnc3cc(-c4ccnc(N5CCN(C)CC5)c4)ccc32)cc(OC)c1C(=O)NCC(F)(F)F [compound 120, 2,6-dimethoxy-4-[5-[2-(4-methylpiperazin-1-yl)-4-pyridyl]benzimidazol-1-yl]-N-(2,2,2-trifluoroethyl)benzamide] | 10 to 100 | 10 to 100 | 0.01 to 10 | 10 to 100 | 0.01 to 10 | 0.01 to 10 | 0.1 to 100 | 100 to 1000 | ++ (>1.5-4.5)
COc1cc(-c2cnc3cc(-c4cnn(C)c4)ccn23)cc(OC)c1C(=O)NCC(F)(F)F [Cpd 88] | 0.01 to 10 | 0.01 to 10 | 0.01 to 10 | 0.01 to 10 | 0.01 to 10 | 0.01 to 10 | 0.1 to 100 | 0.1 to 100 | ++ (>1.5-4.5)
COc1cc(-n2cnc3cc(-c4cnn(C5CN(C)C5)c4)ccc32)cc(OC)c1C(=O)NCC(F)(F)F [Cpd 98, 2,6-dimethoxy-4-[5-[1-(1-methylazetidin-3-yl)pyrazol-4-yl]benzimidazol-1-yl]-N-(2,2,2-trifluoroethyl)benzamide] | 10 to 100 | 0.01 to 10 | 0.01 to 10 | 0.01 to 10 | 0.01 to 10 | 0.01 to 10 | 0.1 to 100 | 0.1 to 100 | ++ (>1.5-4.5)
COc1cc(-n2cnc3cc(-c4cnn(C)c4)ccc32)cc(OC)c1C(=O)N1CC(C#N)C1 [compound 192, 1-[2,6-dimethoxy-4-[5-(1-methylpyrazol-4-yl)benzimidazol-1-yl]benzoyl]azetidine-3-carbonitrile] | 10 to 100 | 10 to 100 | 10 to 100 | 10 to 100 | 0.01 to 10 | 0.01 to 10 | 100 to 1000 | 100 to 1000 | 
COc1cc(-c2cnc3cc(-c4cnn(C)c4)ccn23)cc(OC)c1C(=O)N[C@H](C)C(F)(F)F [Cpd 174, 2,6-dimethoxy-4-[7-(1-methylpyrazol-4-yl)imidazo[1,2-a]pyridin-3-yl]-N-[(1R)-2,2,2-trifluoro-1-methyl-ethyl]benzamide] | 0.01 to 10 | 0.01 to 10 | 0.01 to 10 | 0.01 to 10 | 0.01 to 10 | 0.01 to 10 | 0.1 to 100 | 0.1 to 100 | ++ (>1.5-4.5)
